Measured values from publication PMC11336422, “Oligoarginine peptide structure and its effect on cell penetration in ocular drug delivery” (Heliyon, 2024).
Read-outs that look alike come from different tables or passages of the source. Peptide text beside a SMILES is read from it.

Tests used:
[1] = system: Staphylococcus aureus (S. aureus) ATCC6538; assay type: cell-based
Method: (§1) A broth microdilution assay was performed to determine the minimum inhibitory concentration (MIC) for the oligoarginine peptides. Escherichia coli (E. coli) ATCC25922 and Staphylococcus aureus (S. aureus) ATCC6538 were used as model organisms for Gram-negative and Gram-positive bacteria, respectively. Both strains were cultured in LB broth for ∼18 h overnight at 37 °C and shaking set to 180 RPM. The culture was diluted to obtain a 0.01 optical density (OD) bacterial suspension in LB. Using a 96-well plate, oligoarginine concentrations ranging from 1 mM to 0.001 mM were obtained, and each peptide concentration was tested against both bacterial strains. The bacteria were incubated overnight at 37 °C for 18 h, and the lowest concentration of the treatment with no visible bacterial growth was recorded as the MIC of the respective oligoarginine treatment.

[2] = system: Escherichia coli (E. coli) ATCC25922; assay type: cell-based
Method: as §1

[3] = LB broth, 1 mM to 0.001 mM, 18 h at 37 °C, no visible growth, average ± SEM, n = 9

Row | Compound | S. aureus MIC [1, 3] | E. coli MIC [2, 3] | S. aureus MIC ([1]; ATCC6538, 18 h) | E. coli MIC ([2]; ATCC25922, 18 h)
1 | N=C(N)NCCC[C@H](NC(=O)[C@H](CCCNC(=N)N)NC(=O)[C@H](CCCNC(=N)N)NC(=O)[C@H](CCCNC(=N)N)NC(=O)[C@H](CCCNC(=N)N)NC(=O)[C@H](CCCNC(=N)N)NC(=O)[C@H](CCCNC(=N)N)NC(=O)[C@H](CCCNC(=N)N)NC(=O)[C@H](CCCNC(=N)N)NC(=O)[C@H](CCCNC(=N)N)NC(=O)[C@H](CCCNC(=N)N)NC(=O)[C@@H](N)CCCNC(=N)N)C(=O)O [R12] | 610 ± 220 µM | 940 ± 160 µM |  | 
2 | N=C(N)NCCC[C@H](NC(=O)[C@H](CCCNC(=N)N)NC(=O)[C@H](CCCNC(=N)N)NC(=O)[C@H](CCCNC(=N)N)NC(=O)[C@H](CCCNC(=N)N)NC(=O)[C@H](CCCNC(=N)N)NC(=O)[C@H](CCCNC(=N)N)NC(=O)[C@H](CCCNC(=N)N)NC(=O)[C@@H](N)CCCNC(=N)N)C(=O)O [R9] |  |  | 1000 µM | > 1000 µM
3 | N=C(N)NCCC[C@H](NC(=O)[C@H](CCCNC(=N)N)NC(=O)[C@@H](N)CCCNC(=N)N)C(=O)O [R3] (H-Arg-Arg-Arg-OH) |  |  | > 1000 µM | > 1000 µM
4 | N=C(N)NCCC[C@H](NC(=O)[C@H](CCCNC(=N)N)NC(=O)[C@H](CCCNC(=N)N)NC(=O)[C@H](CCCNC(=N)N)NC(=O)[C@H](CCCNC(=N)N)NC(=O)[C@@H](N)CCCNC(=N)N)C(=O)O [R6] |  |  | > 1000 µM | > 1000 µM
